Values of other authors, collected in article PMC7468272 (Acta Pharmacologica Sinica, 2019).

Test system: CBP/p300

CO[C@H]1CC[C@H](n2c([C@@H]3CCCC(=O)N3c3ccc(F)c(F)c3)nc3cc(-c4c(C)noc4C)ccc32)CC1 [CCS1477]
affinity for CBP/p300: single-digit nanomolar affinity
